These compounds were tested against T1, hFXR (Homo sapiens, UniProt Q96RI1) (assay: In Vitro FXR Assay (TK): hFXR/hRXR TK-ECRE-luc reporter in transfected CV-1 cells). Conditions: 18 hrs incubation, luminescence, compounds with maximum efficacy <25% of the Fexarmine control classified as '+'.
T1 construct: expressed in transfected cells; host or cells: CV-1 cells
T1 sequence (Q96RI1 1-486): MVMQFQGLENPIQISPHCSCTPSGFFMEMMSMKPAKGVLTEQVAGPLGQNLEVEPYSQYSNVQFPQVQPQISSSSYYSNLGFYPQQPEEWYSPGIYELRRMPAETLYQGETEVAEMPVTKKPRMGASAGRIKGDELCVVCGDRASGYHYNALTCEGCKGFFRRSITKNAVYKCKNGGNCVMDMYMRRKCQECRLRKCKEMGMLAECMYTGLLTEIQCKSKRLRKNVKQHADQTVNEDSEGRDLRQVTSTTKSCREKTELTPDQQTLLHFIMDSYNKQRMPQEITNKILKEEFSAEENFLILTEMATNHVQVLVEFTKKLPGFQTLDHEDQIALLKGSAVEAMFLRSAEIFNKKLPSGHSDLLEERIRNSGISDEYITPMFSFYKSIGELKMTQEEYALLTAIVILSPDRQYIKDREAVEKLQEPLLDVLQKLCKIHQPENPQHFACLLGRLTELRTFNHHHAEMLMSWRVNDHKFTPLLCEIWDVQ
T1 sequence (P19793 1-462 partner): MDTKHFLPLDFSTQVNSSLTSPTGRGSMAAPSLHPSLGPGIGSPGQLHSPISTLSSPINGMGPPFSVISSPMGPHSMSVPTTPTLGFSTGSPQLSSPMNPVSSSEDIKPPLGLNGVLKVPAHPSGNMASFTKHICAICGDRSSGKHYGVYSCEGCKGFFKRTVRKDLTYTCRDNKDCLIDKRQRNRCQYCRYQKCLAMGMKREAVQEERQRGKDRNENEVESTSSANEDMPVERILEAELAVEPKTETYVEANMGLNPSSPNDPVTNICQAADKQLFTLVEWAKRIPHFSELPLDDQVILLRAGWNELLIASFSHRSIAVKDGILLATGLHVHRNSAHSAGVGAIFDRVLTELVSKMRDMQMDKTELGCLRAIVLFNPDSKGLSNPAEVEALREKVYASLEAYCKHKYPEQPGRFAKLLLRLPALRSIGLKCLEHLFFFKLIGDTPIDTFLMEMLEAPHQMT
Assay type: cell-based
Summary of the method: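 CV-1, DMEM/10% charcoal-stripped FBS, 37 °C 5% CO2. Transfection O/N: hFXR + hRXR + TK-ECRE-luc + pCMX-YFP. Cpds (DMSO serial dil.) 18 h; lyse, read luminescence.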

EC50, ≤ 250 nM:
COc1ccc([C@H]2CC[C@H](CN(c3cccc(C#Cc4cncs4)c3)C(=O)[C@H]3CC[C@H](O)CC3)CC2)cc1C [Compound 8.01, trans-4-Hydroxy-N-((trans-4-(4-methoxy-3-methylphenyl)cyclohexyl)methyl)-N-(3-(thiazol-5-ylethynyl)phenyl)cyclohexanecarboxamide]
Cn1ncc2cc([C@H]3CC[C@H](CN(c4cccc(-c5cnc(C6CC6)s5)c4)C(=O)[C@H]4CC[C@H](O)CC4)CC3)ccc21 [Compound 9.16, trans-N-(3-(2-Cyclopropylthiaol-5-yl)phenyl)-4-hydroxy-N-((trans-4-(1-methyl-1H-indazol-5-yl)cyclohexyl)methyl)cyclohexanecarboxamide]
O=C([C@H]1CC[C@H](O)CC1)N(C[C@H]1CC[C@H](c2ccc3c(c2)OCO3)CC1)c1cccc(-c2cnc(C3CC3)s2)c1 [Compound 9.25, trans-N-((trans-4-(Benzo[d][1,3]dioxol-5-yl)cyclohexyl)methyl)-N-(3-(2-cyclopropylthiazol-5-yl)phenyl)-4-hydroxycyclohexanecarboxamide]
COc1ccc([C@H]2CC[C@H](CN(c3cccc(C#Cc4cscn4)c3)C(=O)[C@H]3CC[C@H](O)CC3)CC2)cc1C [Compound 8, trans-4-Hydroxy-N-((trans-4-(4-methoxy-3-methylphenyl)cyclohexyl)methyl)-N-(3-(thiazol-4-ylethynyl)phenyl)cyclohexanecarboxamide]
COc1ccc([C@H]2CC[C@H](CN(c3cccc(-c4cnc(OCCO)s4)c3)C(=O)[C@H]3CC[C@H](O)CC3)CC2)cc1C [Compound 7.18, trans-4-Hydroxy-N-(3-(2-(2-hydroxyethoxy)thiazol-5-yl)phenyl)-N-((trans-4-(4-methoxy-3-methylphenyl)cyclohexyl)methyl) cyclohexanecarboxamide]
COc1ccc([C@H]2CC[C@H](CN(c3cccc(-c4cnc(C(F)(F)F)s4)c3)C(=O)[C@H]3CC[C@H](O)CC3)CC2)cc1C [Compound 7.23, trans-4-Hydroxy-N-((trans-4-(4-methoxy-3-methylphenyl)cyclohexyl)methyl)-N-(3-(2-(trifluoromethyl)thiazol-5-yl)phenyl)cyclohexanecarboxamide]
COc1ncc(-c2ccnc(N(C[C@H]3CC[C@H](c4ccc(OC)c(C)c4)CC3)C(=O)[C@H]3CC[C@H](O)CC3)c2)s1 [Compound 6.01, trans-4-Hydroxy-N-((trans-4-(4-methoxy-3-methylphenyl)cyclohexyl)methyl)-N-(4-(2-methoxythiazol-5-yl)pyridin-2-yl)cyclohexanecarboxamide]
COc1ccc([C@H]2CC[C@H](CN(c3cc(-c4cnc(C5CC5)s4)ccn3)C(=O)[C@H]3CC[C@H](O)CC3)CC2)nc1C#N [Compound 9.23, trans-N-((trans-4-(6-Cyano-5-methoxypyridin-2-yl)cyclohexyl)methyl)-N-(4-(2-cyclopropylthiazol-5-yl)pyridin-2-yl)-4-hydroxycyclohexanecarboxamide]
COc1ncc(-c2cccc(N(C[C@H]3CC[C@H](c4ccc5scnc5c4)CC3)C(=O)[C@H]3CC[C@H](O)CC3)c2)s1 [Compound 9.09, trans-N-((trans-4-(Benzo[d]thiazol-5-yl)cyclohexyl)methyl)-4-hydroxy-N-(3-(2-methoxythiazol-5-yl)phenyl)cyclohexanecarboxamide]
COc1ccc([C@H]2CC[C@H](CN(c3cccc(-c4cnc(C(C)C)s4)c3)C(=O)[C@H]3CC[C@H](O)CC3)CC2)nc1C [Compound 9.27, trans-4-Hydroxy-N-(3-(2-isopropylthiazol-5-yl)phenyl)-N-((trans-4-(5-methoxy-6-methylpyridin-2-yl)cyclohexyl)methyl)cyclohexanecarboxamide]
COc1ccc([C@H]2CC[C@H](CN(c3cccc(-c4cnc(N(C)C)s4)c3)C(=O)[C@H]3CC[C@H](O)CC3)CC2)cc1C [Compound 7.13, trans-N-(3-(2-(Dimethylamino)thiazol-5-yl)phenyl)-4-hydroxy-N-((trans-4-(4-methoxy-3-methylphenyl)cyclohexyl)methyl) cyclohexanecarboxamide]
COc1ccc([C@H]2CC[C@H](CN(c3cccc(-c4cnc(C(F)F)s4)c3)C(=O)[C@H]3CC[C@H](O)CC3)CC2)cc1C [Compound 7.22, trans-N-(3-(2-(Difluoromethyl)thiazol-5-yl)phenyl)-4-hydroxy-N-((trans-4-(4-methoxy-3-methylphenyl)cyclohexyl)methyl) cyclohexanecarboxamide]
COc1ncc(-c2cccc(N(C[C@@H]3CC[C@@H](c4ccc(OC)c(C)c4)C(C)C3)C(=O)[C@H]3CC[C@H](O)CC3)c2)s1 (stereo partly drawn) [Compound 9.12, trans-4-Hydroxy-N-((trans-4-(4-methoxy-3-methylphenyl)-3-methylcyclohexyl)methyl)-N-(3-(2-methoxythiazol-5-yl)phenyl)cyclohexanecarboxamide]

EC50, 250 to 1000 nM:
COc1ccc([C@H]2CC[C@H](CN(c3cccc(-c4cnc(C5CCCCC5)s4)c3)C(=O)[C@H]3CC[C@H](O)CC3)CC2)cc1C [Compound 7.09, trans-N-(3-(2-Cyclohexylthiazol-5-yl)phenyl)-4-hydroxy-N-((trans-4-(4-methoxy-3-methylphenyl)cyclohexyl)methyl) cyclohexanecarboxamide]
COc1ccc([C@H]2CC[C@H](CN(c3cccc(-c4cnc(C(C)=O)s4)c3)C(=O)[C@H]3CC[C@H](O)CC3)CC2)cc1C [Compound 7.24, trans-N-(3-(2-Acetylthiazol-5-yl)phenyl)-4-hydroxy-N-((trans-4-(4-methoxy-3-methylphenyl)cyclohexyl)methyl) cyclohexanecarboxamide]
COc1ccc([C@H]2CC[C@H](CN(c3cccc(-c4cnc(CO)s4)c3)C(=O)[C@H]3CC[C@H](O)CC3)CC2)cc1C [Compound 7.19, trans-4-Hydroxy-N-(3-(2-(hydroxymethyl)thiazol-5-yl)phenyl)-N-((trans-4-(4-methoxy-3-methylphenyl)cyclohexyl)methyl) cyclohexanecarboxamide]
COc1ccc([C@H]2CC[C@H](CN(c3cccc(-c4cnc(C#N)s4)c3)C(=O)[C@H]3CC[C@H](O)CC3)CC2)cc1C [Compound 7.26, trans-N-(3-(2-Cyanothiazol-5-yl)phenyl)-4-hydroxy-N-((trans-4-(4-methoxy-3-methylphenyl)cyclohexyl)methyl) cyclohexanecarboxamide]

EC50, ≥ 1000 nM:
COc1ncc(-c2cccc(N(C[C@H]3CC[C@H](c4ccc(OC)c(C)c4)CC3)C(=O)[C@H]3CC[C@H](N)CC3)c2)s1 [Compound 13.01, trans-4-Amino-N-((trans-4-(4-methoxy-3-methylphenyl)cyclohexyl)methyl)-N-(3-(2-methoxythiazol-5-yl)phenyl)cyclohexanecarboxamide]
COc1ccc([C@H]2CC[C@H](CN(c3cccc(CNc4nccs4)c3)C(=O)[C@H]3CC[C@H](O)CC3)CC2)cc1C [Compound 14, trans-4-Hydroxy-N-((trans-4-(4-methoxy-3-methylphenyl)cyclohexyl)methyl)-N-(3-((thiazol-2-ylamino)methyl)phenyl)cyclohexanecarboxamide]
COc1ccc([C@H]2CC[C@H](CN(c3cccc(-c4ncc(C)s4)c3)C(=O)[C@H]3CC[C@H](O)CC3)CC2)cc1C [Compound 7.03, trans-4-Hydroxy-N-((trans-4-(4-methoxy-3-metthylphenyl)cyclohexyl)methyl)-N-(3-(5-methylthiazol-2-yl)phenyl)cyclohexanecarboxamide]
COc1ccc([C@H]2CC[C@H](CN(c3cccc(-c4nc(C)cs4)c3)C(=O)[C@H]3CC[C@H](O)CC3)CC2)cc1C [Compound 7.01, trans-4-Hydroxy-N-((trans-4-(4-methoxy-3-methylphenyl)cyclohexyl)methyl)-N-(3-(4-methylthiazol-2-yl)phenyl)cyclohexanecarboxamide]
COc1ccc([C@H]2CC[C@H](CN(c3cccc(-c4cnc(C(=O)O)s4)c3)C(=O)[C@H]3CC[C@H](O)CC3)CC2)cc1C [Compound 7.28, 5-(3-(trans-4-Hydroxy-N-((trans-4-(4-methoxy-3-methylphenyl)cyclohexyl)methyl)cyclohexanecarboxamido)phenyl)thiazole-2-carboxylic acid]
